Patent US10285382B2 (priority 2017, dated 2019)
Values joined by “and” are separate entries in the source; they are usually repeats but may differ in a detail not shown here. Equal entries are not always repeated. Where two headings read alike, the source gives them in different places.

Tests used:
chicks = system: chicks
Source text: The chicks hatched according to the methods of Examples 2 and 3 are shipped to a broiler facility and raised to maturity. No additional changes to grow-out methods are made. A total of about 4 million eggs are set per month and the saleable chicks are sent to the grow-out facility. […] The wholesale price of a broiler is currently estimated at $0.85 per pound. […] See the http:///.nationalchickencouncil.org available on the web.

Influenza A (H1N1) = system: Influenza A (H1N1)
Procedure: Glass slides (1″×3″) are ethanol-sanitized and autoclaved prior to testing. The slides (carriers) are placed into sterile plastic petri dishes until use. Aliquots (0.010 ml) of diluted stock Influenza A (H1N1) are aseptically spread over a 1″×1″ square area of the carrier slide to prepare a virus film.
Virus Control carriers are placed into an adjacent modular room with the lids removed. One additional glass slide (with no virus film) is also placed into each testing chamber to perform cytotoxicity and neutralization validation controls. Upon closure of the respective study contact times (T=60 min and T=120 min), duplicate carriers are removed from each testing chamber. Duplicate carriers are also removed from the control modular room at each time point. Duplicate time zero carriers are harvested and enumerated promptly by eluting the films with 2 ml of Influenza Infection Medium. Serial dilutions (1:10) are performed and dilutions 10^−1 to 10^−5 are plated in quadruplicate onto Madin-Darby Canine Kidney (MDCK) cell monolayers prepared to suitable confluency. Cell culture assay trays are incubated at 35° C. on an orbital rotator (60 rotations/minute) for 60 minutes to facilitate viral-host adsorption. Trays are removed from incubation, and Influenza infection Media is pipetted into each well (˜1.0 ml). The trays are incubated for 7 days. The assay trays are observed regularly for the presence of cytotoxicity, viral cytopathic effects, and contamination. At the end of 7 days, plates are scored and the Spearman-Karber Method is used to compute viral titers and levels of cytotoxicity.

Aspergillus fumigatus = system: Aspergillus fumigatus
Source text: (§1) Hatcheries and chick production facilities are subject to heavy bacterial loads that are difficult to control. In addition to the animals themselves, there is a significant contamination of the facilities from the outside.

Other blue green = system: Other blue green
Source text: as §1

Total bacteria = system: Total bacteria
Source text: as §1

[1] = system: flies and other unwanted insects
Source text: In addition to the incoming eggs, the egg room includes excess shipping boxes and pallets.

Salmonella = conditions: hatchery environment (egg room and incubators); after 28 days
[2] = system: S. aureus ATCC 33592 (MRSA)
E. coli K12 = conditions: for % Reduction vs. Control / Log10 reduction / Log10 reduction vs. Control / Percent reduction: DHP (+)
[3] = system: MS2 Bacteriophage ATCC 15597-B1; conditions: DHP (+); 1 hour
bacteria growing on TSA = conditions: for number of bacteria growing on TSA: test room, DHP about 0.1 ppm, FIGS. 13A-B
[4] = system: Gram-negative enteric bacilli; conditions: egg cooler conditions
salmonellae = conditions: egg cooler conditions; during the trial
bacteria = conditions: end of test period (0, 7, and 30 days), three locations; from about 70 total; FIGS. 9A-C
Procedure: In addition, bacterial contamination in the egg room is assessed by placing blood agar plates at three locations in the room (East, North, and West) at 0, 7, and 30 days, and bacterial growth is assessed after 24 hours.

[5] = Hood Chamber, 60 minutes contact
[6] = Hood Chamber, 120 minutes contact
[7] = Modular Room, 60 minutes contact, DHP 0.6 to 1.0 ppm
[8] = Modular Room, 120 minutes contact, DHP 0.6 to 1.0 ppm
[9] = 6 Hours contact, Hood (Treated)
[10] = 6 Hours contact, Room (Treated)
[11] = 24 Hours contact, Hood (Treated)
[12] = 24 Hours contact, Room (Treated)
[13] = 48 Hours contact, Hood (Treated)
[14] = 48 Hours contact, Room (Treated)

With `OO` [DHP, dry hydrogen peroxide] the “Mortality Rate” value (chicks; After DHP treatment, grow-out facility) was 2.2%, the “Net increase (# Broilers)” value (chicks; After DHP treatment, per month) was 308,678 and the reduction of mortality (chicks; at the grow-out facility) was “about 7.8%”. For the same molecule, the “increase in overall production” value (chicks; per month) was “over 300,000 broilers”, the “% Reduction” value (Influenza A (H1N1); [5]) was 99.8% and the Log10 reduction (Influenza A (H1N1); [5]) was “>=2.62”. The “% Reduction” value (Influenza A (H1N1); [6]) was 98.6%, the Log10 reduction (Influenza A (H1N1); [6]) was “>=1.87” and the “% Reduction” value (Influenza A (H1N1); [7]) was 87%. The Log10 reduction (Influenza A (H1N1); [7]) was 0.87, the “% Reduction” value (Influenza A (H1N1); [8]) was 76% and the Log10 reduction (Influenza A (H1N1); [8]) was 0.62. The Kill (Aspergillus fumigatus) was 49999, the Reduction (Aspergillus fumigatus) was 99.99% and the Post (Aspergillus fumigatus; hatchery after DHP) was 1. The Kill (Other blue green) was 49983, the Reduction (Other blue green) was 99.89% and the Post (Other blue green; hatchery after DHP) was 56. The “reduction of bacterial loads in hatcheries” value (Total bacteria; DHP treatment) was “over 90%”, the Kill (Total bacteria; Total (sum of all categories)) was 650019 and the Post (Total bacteria; Total (sum of all categories)) was 50167. It also gave a Kill (Total bacteria; Total bacteria) of 550037, a Reduction (Total bacteria; Total bacteria) of 91.65% and a Post (Total bacteria; Total bacteria, hatchery after DHP) of 50110. The “Percent Saleable Chicks” value (hatching eggs; After DHP treatment) was 80.82%, the “Saleable Chick (average)” value (hatching eggs; After DHP treatment, 4,000,000 eggs set per month) was 3,318,400 and the “Net increase (# Chicks)” value (hatching eggs; After DHP treatment, from each 4,000,000 eggs set) was 62,000. For the same molecule, the “After Modification Cull Rate (%)” value (hatching eggs; August 2016) was 1.58%, the “After Modification First Quality Chick (% Hatched)” value (hatching eggs; August 2016) was 79.90% and the “After Modification Cull Rate (%)” value (hatching eggs; Average June-November 2016) was 1.65%. For the same molecule, the “After Modification First Quality Chick (% Hatched)” value (hatching eggs; Average June-November 2016) was 80.82%, the “cull rate lower than the cull rate before DHP modification” value (hatching eggs; DHP modified egg room) was “at least 1%” and the “After Modification Cull Rate (%)” value (hatching eggs; July 2016) was 1.88%. The “After Modification First Quality Chick (% Hatched)” value (hatching eggs; July 2016) was 79.78%, the “After Modification Cull Rate (%)” value (hatching eggs; June 2016) was 2.09% and the “After Modification First Quality Chick (% Hatched)” value (hatching eggs; June 2016) was 78.62%. For the same molecule, the “After Modification Cull Rate (%)” value (hatching eggs; November 2016) was 1.41%, the “After Modification First Quality Chick (% Hatched)” value (hatching eggs; November 2016) was 82.96% and the “After Modification Cull Rate (%)” value (hatching eggs; October 2016) was 1.32%. For the same molecule, the “After Modification First Quality Chick (% Hatched)” value (hatching eggs; October 2016) was 82.55%, the “After Modification Cull Rate (%)” value (hatching eggs; September 2016) was 1.63% and the “After Modification First Quality Chick (% Hatched)” value (hatching eggs; September 2016) was 81.09%. For the same molecule, the “percent hatching of first quality chicks” value (hatching eggs; after installation of DHP to the setter incubator environment (room about 0.5 ppm), FIG. 6) was 83%, the cull rate (hatching eggs; eggs incubated under DHP conditions, FIG. 7) was “continues to drop” and the “additional birds available for shipping to the grow-out facility” value (hatching eggs; installation of DHP in the egg room) was “about 4,000 birds”. For the same molecule, the “elimination of flies and other unwanted insects” value ([1]; egg room, DHP between 0.1 ppm and 0.2 ppm) was “sufficient to eliminate”, the “elimination of flies and other unwanted insects, both flying and non-flying” value ([1]; incorporation of DHP into the egg room) was “eliminates” and the “flying insects in the facility” value ([1]; within the first couple days of applying DHP to the poultry space) was “virtually eliminated”. For the same molecule, the “reduction of Salmonella on the egg surface” value (Salmonella) was 83.3%, the “% Reduction compared to Control” value [2, 9] was 95.150% and the “Average CFU/Carrier” value [2, 9] was 2.51E+05 CFU/Carrier. For the same molecule, the “Log Reduction compared to Control” value [2, 9] was 1.31, the “Replicate CFU/Carrier” value [2, 9] was 1.62E+05 CFU/Carrier and 3.40E+05 CFU/Carrier and the “% Reduction compared to Control” value [2, 10] was 83.053%. The “Average CFU/Carrier” value [2, 10] was 8.77E+05 CFU/Carrier, the “Log Reduction compared to Control” value [2, 10] was 0.77 and the “Replicate CFU/Carrier” value [2, 10] was 2.54E+05 CFU/Carrier and 1.50E+06 CFU/Carrier. For the same molecule, the “% Reduction compared to Control” value [2, 11] was over 66.667%, the “Average CFU/Carrier” value [2, 11] was under 1.50E+01 CFU/Carrier and the “Log Reduction compared to Control” value [2, 11] was over 0.48. The “Replicate CFU/Carrier” value [2, 11] was 2.50E+01 CFU/Carrier and <5.00E+00 CFU/Carrier, the “% Reduction compared to Control” value [2, 12] was over 88.889% and the “Average CFU/Carrier” value [2, 12] was under 5.00E+00 CFU/Carrier. The “Log Reduction compared to Control” value [2, 12] was over 0.95, the “Replicate CFU/Carrier” value [2, 12] was 5.00E+00 CFU/Carrier and <5.00E+00 CFU/Carrier and the “% Reduction compared to Control” value [2, 13] was over 78.947%. For the same molecule, the “Average CFU/Carrier” value [2, 13] was under 1.00E+01 CFU/Carrier, the “Log Reduction compared to Control” value [2, 13] was over 0.68 and the “% Reduction compared to Control” value [2, 14] was over 89.474%. The “Average CFU/Carrier” value [2, 14] was under 5.00E+00 CFU/Carrier, the “Log Reduction compared to Control” value [2, 14] was over 0.98 and the “Replicate CFU/Carrier” value [2, 14] was under 5.00E+00 CFU/Carrier. For the same molecule, the “% Reduction vs. Control” value (E. coli K12; 1 hour) was 99.8%, the Log10 reduction (E. coli K12; 1 hour) was over 4.78 and the “Log10 reduction vs. Control” value (E. coli K12; 1 hour) was 2.82. For the same molecule, the Percent reduction (E. coli K12; 1 hour) was over 99.9984%, the “% Reduction vs. Control” value (E. coli K12; 2 hours) was 98.1% and the Log10 reduction (E. coli K12; 2 hours) was over 4.79. For the same molecule, the “Log10 reduction vs. Control” value (E. coli K12; 2 hours) was 1.71, the Percent reduction (E. coli K12; 2 hours) was over 99.9984% and the “aerosolized bacteria in the DHP treated space” value (E. coli K12; within one hour) was “essentially eliminated”. For the same molecule, the “% Reduction vs. Control” value [3] was 99.8%, the Log10 reduction [3] was 3.54 and the “Log10 reduction vs. Control” value [3] was 2.70. The Percent reduction [3] was 99.97%, the TSA growth (bacteria growing on TSA; egg cooler conditions, treatment, 0 to 120 hours) was “static until 120 hours” and the “number of bacteria growing on TSA” value (bacteria growing on TSA; after 72 hours (P=0.05)) was “significantly reduced”. For the same molecule, the “number of bacteria growing on TSA” value (bacteria growing on TSA; after 120 hours (P=0.05)) was “significantly reduced”, the “growth on Mac at 72 hours compared to 0 hours” value ([4]; treated group, FIG. 14) was “significantly less growth” and the Mac growth ([4]; treatment, 0 to 120 hours) was “low throughout”. For the same molecule, the “growth of Salmonella on the XLT-4” value (salmonellae) was “No growth” and the “number of bacterial colonies on the blood agar plates, total” value (bacteria) was “about 30”.
